Results taken from the NIST ThermoML archive (doi:10.1016/j.jct.2016.08.015).
± gives the expanded uncertainty stated by the source.

Test: xn = mol fraction of the nth substance listed
Details: 101.3 kPa, Liquid, Pycnometric method

Structure (SMILES)	mass density (303.15 K, x1 = 0.75)	mass density (313.15 K, x1 = 0.75)	mass density (323.15 K, x1 = 0.75)	mass density (333.15 K, x1 = 0.75)	mass density (303.15 K, x2 = 0.75)	mass density (313.15 K, x2 = 0.75)	mass density (323.15 K, x2 = 0.75)	mass density (333.15 K, x2 = 0.75)
CC(=O)CCC(=O)O [4-oxopentanoic acid] + CCCC[N+](CCCC)(CCCC)CCCC.[Br-]	1093.5 ± 1.1 kg/m3	1086.2 ± 1.1 kg/m3	1078.8 ± 1.1 kg/m3	1072.1 ± 1.1 kg/m3				
CC(=O)CCC(=O)O [4-oxopentanoic acid] + CC[N+](CC)(CC)CC.[Br-]	1169.9 ± 1.1 kg/m3	1162.2 ± 1.1 kg/m3	1154.6 ± 1.1 kg/m3	1147.4 ± 1.2 kg/m3				
CC(=O)OCC[N+](C)(C)C.[Cl-] [acetylcholine chloride] + CC(=O)CCC(=O)O					1136.9 ± 1.1 kg/m3	1129.4 ± 1.1 kg/m3	1121.8 ± 1.1 kg/m3	1114.4 ± 1.1 kg/m3
CCCC[N+](CCCC)(CCCC)CCCC.[Cl-] [tetrabutylammonium chloride] + CC(=O)CCC(=O)O					1027.3 ± 1.2 kg/m3	1020.3 ± 1.3 kg/m3	1013.1 ± 1.3 kg/m3	1006 ± 1.3 kg/m3
CC[N+](CC)(CC)CC.[Cl-] [tetraethylammonium chloride] + CC(=O)CCC(=O)O					1090.3 ± 1.3 kg/m3	1083.3 ± 1.3 kg/m3	1076.1 ± 1.3 kg/m3	1069.2 ± 1.3 kg/m3
